Assay results reported in ChEMBL document CHEMBL1201862, “PubChem BioAssay data set” (2004).
Where “and” joins values, the source holds several entries; their conditions need not be identical. Equal values may be shown once.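 Cultured in 96-well plates, cells were exposed to test compound for 48 hours across five concentrations. GI50: concentration for 50% inhibition of growth.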 Calls of active or inactive are those of the source. Rule as the data show it: active = GI50 up to about 1.1 µM and inactive = higher.

Tests used:
Assay in all cases: NCI anticancer screen, dose series, 48 h
COLO 205 = tested on: COLO 205
HOP-62 = tested on: HOP-62
NCI-H522 = tested on: NCI-H522
CAKI-1 = tested on: CAKI-1
SW-620 = tested on: SW-620
TK-10 = tested on: TK-10
SK-MEL-28 = tested on: SK-MEL-28
OVCAR-8 = tested on: OVCAR-8
DU-145 = tested on: DU-145
HT-29 = tested on: HT-29
SNB-75 = tested on: SNB-75
HCT-116 = tested on: HCT-116
LOX IMVI = tested on: LOX IMVI
SF-539 = tested on: SF-539
CCRF-CEM = tested on: CCRF-CEM
IGROV-1 = tested on: IGROV-1
EKVX = tested on: EKVX
PC-3 = tested on: PC-3
SF-295 = tested on: SF-295
SR = tested on: SR

Compound | GI50 (COLO 205) | GI50 (HOP-62) | GI50 (NCI-H522) | GI50 (CAKI-1) | GI50 (SW-620) | GI50 (TK-10) | GI50 (SK-MEL-28) | GI50 (OVCAR-8) | GI50 (DU-145) | GI50 (HT-29) | GI50 (SNB-75) | GI50 (HCT-116) | GI50 (LOX IMVI) | GI50 (SF-539) | GI50 (CCRF-CEM) | GI50 (IGROV-1) | GI50 (EKVX) | GI50 (PC-3) | GI50 (SF-295) | GI50 (SR)
NC(=S)NS(=O)(=O)c1ccc(F)cc1F | > 100 µM (inactive) | > 100 µM (inactive) | > 100 µM (inactive) | > 100 µM (inactive) | > 100 µM (inactive) | > 100 µM (inactive) | > 100 µM (inactive) | > 100 µM (inactive) | > 100 µM (inactive) | > 100 µM (inactive) | > 100 µM (inactive) | > 100 µM (inactive) | > 100 µM (inactive) | > 100 µM (inactive) | > 100 µM (inactive) | > 100 µM (inactive) | > 100 µM (inactive) | > 100 µM (inactive) | > 100 µM (inactive) | –
O=C1c2ccccc2-c2oc(=O)c3ccccc3c21 | > 100 µM (inactive) | > 100 µM (inactive) | 0.962 µM (active) | > 100 µM (inactive) | > 100 µM (inactive) | > 100 µM (inactive) | > 100 µM (inactive) | > 100 µM (inactive) | > 100 µM (inactive) | > 100 µM (inactive) | > 100 µM (inactive) | > 100 µM (inactive) | > 100 µM (inactive) | > 100 µM (inactive) | > 100 µM (inactive) | 32.7 µM (inactive) | 24.8 µM (inactive) | > 100 µM (inactive) | > 100 µM (inactive) | –
Cc1ccc(C(=O)N/N=C(\N=N\c2ccccc2)c2ccc(N(C)C)cc2)cc1 | 57.3 µM (inactive) | – | 65.8 µM (inactive) | 44.5 µM (inactive) | > 100 µM (inactive) | > 100 µM (inactive) | > 100 µM (inactive) | > 100 µM (inactive) | 20.9 µM (inactive) | > 100 µM (inactive) | – | > 100 µM (inactive) | > 100 µM (inactive) | > 100 µM (inactive) | > 100 µM (inactive) | > 100 µM (inactive) | > 100 µM (inactive) | > 100 µM (inactive) | > 100 µM (inactive) | 35.5 µM (inactive)
O=c1cc(C(F)(F)F)c2cc3c(cc2o1)NCCC3 | > 100 µM (inactive) | 17.1 µM (inactive) | 49.5 µM (inactive) | 86.9 µM (inactive) | > 100 µM (inactive) | > 100 µM (inactive) | > 100 µM (inactive) | 42.2 µM (inactive) | > 100 µM (inactive) | > 100 µM (inactive) | – | 28.8 µM (inactive) | > 100 µM (inactive) | > 100 µM (inactive) | > 100 µM (inactive) | 97.3 µM (inactive) | 6.4 µM (inactive) | 85.3 µM (inactive) | 35 µM (inactive) | > 100 µM (inactive)
CC(=O)C1C(=O)C(=O)N(c2cccc([N+](=O)[O-])c2)C1=O (stereo not given) | > 100 µM (inactive) | > 100 µM (inactive) | > 100 µM (inactive) | > 100 µM (inactive) | > 100 µM (inactive) | > 100 µM (inactive) | > 100 µM (inactive) | > 100 µM (inactive) | > 100 µM (inactive) | > 100 µM (inactive) | > 100 µM (inactive) | > 100 µM (inactive) | > 100 µM (inactive) | > 100 µM (inactive) | > 100 µM (inactive) | > 100 µM (inactive) | > 100 µM (inactive) | > 100 µM (inactive) | > 100 µM (inactive) | –
N#CC(C#N)=Cc1ccc2c(c1)OC(Cl)O2 (stereo not given) | 24.3 µM (inactive) | – | > 10 µM (inactive) | > 100 µM (inactive) | > 10 µM (inactive) | 29.6 µM (inactive) | 19.9 µM (inactive) | 31.6 µM (inactive) | 27.7 µM (inactive) | 23.8 µM (inactive) | 25.8 µM (inactive) | 18.9 µM (inactive) | 18.4 µM (inactive) | 20.4 µM (inactive) | 20.4 µM (inactive) | – | 27.4 µM (inactive) | 23.2 µM (inactive) | 19.3 µM (inactive) | –
C=CCc1ccccc1CC1(OCC)OC(=O)c2ccccc21 (stereo not given) | 67.1 µM (inactive) | 94 µM (inactive) | 67.8 µM (inactive) | > 100 µM (inactive) | > 100 µM (inactive) | > 100 µM (inactive) | > 100 µM (inactive) | > 100 µM (inactive) | > 100 µM (inactive) | 45.2 µM (inactive) | 0.0259 µM (active) | 41.2 µM (inactive) | – | > 100 µM (inactive) | – | > 100 µM (inactive) | > 100 µM (inactive) | 83 µM (inactive) | > 100 µM (inactive) | –
CN1Cc2ccccc2/C=C\c2ccccc21 | 44.5 µM (inactive) | > 100 µM (inactive) | 37.5 µM (inactive) | 40.9 µM (inactive) | > 100 µM (inactive) | 70.5 µM (inactive) | > 100 µM (inactive) | > 100 µM (inactive) | > 100 µM (inactive) | 28.1 µM (inactive) | 65.6 µM (inactive) | 78.2 µM (inactive) | 72.9 µM (inactive) | > 100 µM (inactive) | 47.3 µM (inactive) | > 100 µM (inactive) | 30.8 µM (inactive) | 64 µM (inactive) | 62.7 µM (inactive) | –
Cc1nc(=O)[nH]c2s/c(=N/C3CCCCC3)n(C3CCCCC3)c(=O)c12 | > 100 µM (inactive) | > 100 µM (inactive) | > 100 µM (inactive) | > 100 µM (inactive) | > 100 µM (inactive) | > 100 µM (inactive) | > 100 µM (inactive) | > 100 µM (inactive) | > 100 µM (inactive) | > 100 µM (inactive) | > 100 µM (inactive) | > 100 µM (inactive) | > 100 µM (inactive) | > 100 µM (inactive) | > 100 µM (inactive) | > 100 µM (inactive) | > 100 µM (inactive) | > 100 µM (inactive) | > 100 µM (inactive) | –
C=CCSC1=N/C(=C\c2ccc(C)cc2)C(=O)N1CC=C | 20.6 µM (inactive) | 64.6 µM (inactive) | 26.7 µM (inactive) | 80 µM (inactive) | 32.4 µM (inactive) | 44.3 µM (inactive) | 45.7 µM (inactive) | 24.8 µM (inactive) | 20.7 µM (inactive) | 13.9 µM (inactive) | – | 18.4 µM (inactive) | 26.5 µM (inactive) | 25.8 µM (inactive) | – | 44.2 µM (inactive) | 10.1 µM (inactive) | 22.2 µM (inactive) | 43.5 µM (inactive) | 11.5 µM (inactive)
Cc1cc(OCc2nnc3n2N=C(c2cc(F)c(Cl)cc2Cl)/C(=C/c2ccc(Cl)cc2)S3)ccc1Cl | – | 43.1 µM (inactive) | 14.7 µM (inactive) | 18.6 µM (inactive) | 17.4 µM (inactive) | 32.6 µM (inactive) | 19.8 µM (inactive) | 18.8 µM (inactive) | 17.4 µM (inactive) | 16.7 µM (inactive) | – | 12.8 µM (inactive) | 21.9 µM (inactive) | 44.9 µM (inactive) | 2.95 µM (inactive) | 20.9 µM (inactive) | 39.4 µM (inactive) | 21.4 µM (inactive) | 29.9 µM (inactive) | 7.96 µM (inactive)
S=C(Nc1ccc(/N=N/c2ccccc2)cc1)SCc1ccccc1 | 23.1 µM (inactive) | 20.2 µM (inactive) | 16.9 µM (inactive) | 16.5 µM (inactive) | 20.6 µM (inactive) | 12.5 µM (inactive) | 18.1 µM (inactive) | 7.35 µM (inactive) | 15.9 µM (inactive) | 23.6 µM (inactive) | 18.4 µM (inactive) | 14.8 µM (inactive) | 18.7 µM (inactive) | 18.4 µM (inactive) | 15.9 µM (inactive) | 17.7 µM (inactive) | 24.8 µM (inactive) | 15 µM (inactive) | 17.9 µM (inactive) | –
CCCCC1=C(C(=O)N2CCOCC2)C2(OCCO2)C1Cl (stereo not given) | 23.1 µM (inactive) | 35.2 µM (inactive) | 27.1 µM (inactive) | 29.2 µM (inactive) | 31 µM (inactive) | 29.9 µM (inactive) | 23 µM (inactive) | 45.9 µM (inactive) | 44.5 µM (inactive) | 24.4 µM (inactive) | 30.2 µM (inactive) | 41.7 µM (inactive) | 28.2 µM (inactive) | 16.4 µM (inactive) | > 100 µM (inactive) | 32.4 µM (inactive) | 47.1 µM (inactive) | 35.6 µM (inactive) | 28.1 µM (inactive) | –
C=C(C(=O)O)[C@@H]1C[C@@H]2O[C@H]1[C@@H](O)[C@@H](C)CCCC(C)=CCC[C@@]2(C)O | > 100 µM (inactive) and 72.6 µM (inactive) | > 100 µM (inactive) | – | – | 39.8 µM (inactive) and 58.1 µM (inactive) | > 100 µM (inactive) and > 52.1 µM (inactive) | > 100 µM (inactive) | > 100 µM (inactive) | > 100 µM (inactive) | – | > 100 µM (inactive) | 64.1 µM (inactive) and > 83.4 µM (inactive) | 41.3 µM (inactive) and > 47.2 µM (inactive) | 87.5 µM (inactive) | 33.3 µM (inactive) and > 46.8 µM (inactive) | 92.9 µM (inactive) and > 75 µM (inactive) | > 100 µM (inactive) and > 94.4 µM (inactive) | > 100 µM (inactive) | > 100 µM (inactive) | 49.1 µM (inactive)
CC[C@@H]1C[C@@H](O)[C@@H]2[C@H](O)[C@H](O)CN2C1 | > 100 µM (inactive) | – | > 100 µM (inactive) | > 100 µM (inactive) | > 100 µM (inactive) | > 100 µM (inactive) | > 100 µM (inactive) | > 100 µM (inactive) | > 100 µM (inactive) | > 100 µM (inactive) | 22.3 µM (inactive) | > 100 µM (inactive) | > 100 µM (inactive) | > 100 µM (inactive) | > 100 µM (inactive) | > 100 µM (inactive) | > 100 µM (inactive) | > 100 µM (inactive) | > 100 µM (inactive) | –
